According to US5217984A, “1-phenyl substituted-1H, 3H-thiazole [3,4-a] benzimidazoles and pharmaceutical compositions containing them” (priority 1990, dated 1993):

Test system: not listed separately
Assay: relative lipophylia (RM) by reverse phase thin layer chromatography
Format: physicochemical
Details: rp-tlc, acetone/water 2:1
Procedure: The lipophylic character of the synthesized compounds was evaluated with reverse phase, thin layer chromatography.
The non-polar stationary phase is represented by plates of Merck 60 F254 silanized silica gel, whereas the polar phase consists of an acetone/water mixture (2:1).
The compounds were solubilized in chloroform (3 mg/ml).
The RM values were calculated from the average experimental values of RF, obtained from three chromatograms using the formula: […]
Higher values of RM corresponding to lower values of RF indicate more lipophylic compounds.

chromatographic logP	Structure (SMILES)
-0.387	FC(F)(F)c1ccc(C2SCc3nc4ccccc4n32)cc1 (stereo not shown) [XVI]
-0.393	Clc1ccccc1C1SCc2nc3ccccc3n21 (stereo not shown) [VII]
-0.414	O=[N+]([O-])c1cc(C2SCc3nc4ccccc4n32)ccc1Cl (stereo not shown) [XXXI]
-0.362	Clc1ccc(C2SCc3nc4ccccc4n32)cc1Cl (stereo not shown) [XXVII]
-0.452	Fc1cccc(Cl)c1C1SCc2nc3ccccc3n21 (racemic) [XXIX, (±) 1-(2-chloro-6-fluorophenyl)-1H,3H-thiazole [3,4-a] benzimidazole]
-0.349	FC(F)(F)c1ccccc1C1SCc2nc3ccccc3n21 (stereo not shown) [XIV]
-0.402	Clc1ccc(C2SCc3nc4ccccc4n32)cc1 (stereo not shown) [IX]
-0.477	COc1ccc(C2SCc3nc4ccccc4n32)cc1 (stereo not shown) [XIII]
-0.399	Cc1cccc(C2SCc3nc4ccccc4n32)c1 (stereo not shown) [XI]
-0.423	O=[N+]([O-])c1ccc(Cl)c(C2SCc3nc4ccccc4n32)c1 (stereo not shown) [XXX]
-0.402	Clc1cccc(Cl)c1C1SCc2nc3ccccc3n21 (racemic) [XXVI, (±) 1-(2,6-dichlorophenyl)-1H,3H-thiazole [3,4-a] benzimidazole]
-0.506	N#Cc1ccc(C2SCc3nc4ccccc4n32)cc1 (stereo not shown) [XVIII]
-0.406	Brc1cccc(C2SCc3nc4ccccc4n32)c1 (stereo not shown) [II]
-0.452	Fc1ccc(C2SCc3nc4ccccc4n32)c(F)c1 (stereo not shown) [XX]

The remaining lines, values behind:

Structure (SMILES)	chromatographic logP
Cc1ccccc1C1SCc2nc3ccccc3n21 (stereo not shown) [X]	-0.452
Fc1ccccc1C1SCc2nc3ccccc3n21 (racemic) [IV, (±) 1-(2-fluorophenyl)-1H,3H-thiazole [3,4-a] benzimidazole]	-0.468
Clc1cccc(C2SCc3nc4ccccc4n32)c1 (stereo not shown) [VIII]	-0.428
Fc1ccc(C2SCc3nc4ccccc4n32)cc1F (stereo not shown) [XXIII]	-0.43
FC(F)(F)c1cccc(C2SCc3nc4ccccc4n32)c1 (stereo not shown) [XV]	-0.378
COc1cccc(C2SCc3nc4ccccc4n32)c1 (stereo not shown) [XII]	-0.436
Brc1ccc(C2SCc3nc4ccccc4n32)cc1 (stereo not shown) [III]	-0.43
Fc1cccc(C2SCc3nc4ccccc4n32)c1F (stereo not shown) [XIX]	-0.452
Clc1ccc(C2SCc3nc4ccccc4n32)c(Cl)c1 (stereo not shown) [XXV]	-0.329
Fc1ccc(C2SCc3nc4ccccc4n32)cc1 (stereo not shown) [VI]	-0.412
O=[N+]([O-])c1ccc(Cl)cc1C1SCc2nc3ccccc3n21 (racemic) [XXXII, (±) 1-(2-nitro-5-chlorophenyl)-1H,3H-thiazole [3,4-a] benzimidazole]	-0.387
Clc1cccc(C2SCc3nc4ccccc4n32)c1Cl (stereo not shown) [XXIV]	-0.355
Brc1ccccc1C1SCc2nc3ccccc3n21 (stereo not shown) [I]	-0.41
Oc1cccc(C2SCc3nc4ccccc4n32)c1 (stereo not shown) [XVII]	-0.591
Fc1cccc(C2SCc3nc4ccccc4n32)c1 (racemic) [V, (±) 1-(3-fluorophenyl)-1H,3H-thiazole [3,4-a] benzimidazole]	-0.434

Same assay, conditions: rp-tlc; silanized silica gel Merck 60 F254 plates; acetone/water 2:1; average of three chromatograms; read-out: RM (relative lipophylia)

Structure (SMILES)	chromatographic logP
Fc1cccc(F)c1C1SCc2nc3ccccc3n21 (racemic) [XXII, (±) 1-(2,6-difluorophenyl)-1H,3H-thiazole [3,4-a] benzimidazole]	-0.475
Clc1cc(Cl)cc(C2SCc3nc4ccccc4n32)c1 (stereo not shown) [XXVIII]	-0.337

Test system: HIV
Assay: HIV-induced cytopathogenicity in human T4-lymphocyte cell line (CEM)
Format: cell-based
Details: Human immunodeficiency virus 1, CCRF-CEM, read-out: EC50 (50% reduction of the viral cytopathic effect)
Procedure: (§1) For their effects on HIV-induced cytopathogenicity in human T4 -lymphocyte cell line (CEM), the compounds of the present invention were evaluated according to NIH procedures as described by R. Vince et al., Biochem. Biophys.Res.Comm., 156, 1046, 1988 and by O. S. Weislow et al. J. Natl.Canc. Inst., 81. 577,1988.
It was possible to evaluate for many compounds of the invention:
a) the effective concentration 50% (EC50), which represents the concentration of the tested compound resulting in 50% reduction of the viral cytopathic effect.
c) the therapeutic index TI50 which is determined as the IC50 /EC50 ratio.
Only substances able to cause at least a 50% or greater reduction of viral cytopathic effect are kept in consideration for further investigation.
(§2) The methods, the test conditions, the evaluation criteria of the anti-HIV activity in vitro are described by Weislow, O. W., Kieser, R., Fine, D., Bader, J., Shoemaker, R. H., Boyd, M. R.: New soluble-formazan assay for HIV-1 cytopathic effects: application to high-flux screening of synthetic and natural products for AIDS-antiviral activity. J. Nati, Cancer Inst. 81:577-586,1989.

Structure (SMILES)	EC50 [µM]
Fc1cccc(F)c1C1SCc2nc3ccccc3n21 (racemic) [XXII, (±) 1-(2,6-difluorophenyl)-1H,3H-thiazole [3,4-a] benzimidazole]	1

Same assay, conditions: Human immunodeficiency virus 1, CCRF-CEM; HIV-infected CEM cells; read-out: EC50 (50% reduction of the viral cytopathic effect)

EC50 [µM]	Structure (SMILES)
2.94	N#Cc1cccc(C2SCc3nc4ccccc4n32)c1 (stereo not shown) [XXXIII, 1-(3-cyano-phenyl)-1H,3H-thiazole [3,4-a] benzimidazole]
0.596	Fc1cccc(Cl)c1C1SCc2nc3ccccc3n21 (racemic) [XXIX, (±) 1-(2-chloro-6-fluorophenyl)-1H,3H-thiazole [3,4-a] benzimidazole]
15.9	O=[N+]([O-])c1ccc(Cl)c(C2SCc3nc4ccccc4n32)c1 (stereo not shown) [XXX]
0.257	Clc1cccc(Cl)c1C1SCc2nc3ccccc3n21 (racemic) [XXVI, (±) 1-(2,6-dichlorophenyl)-1H,3H-thiazole [3,4-a] benzimidazole]
17.2	O=[N+]([O-])c1ccccc1C1SCc2nc3ccccc3n21 (stereo not shown) [XXXVI, 1-(2-nitro-phenyl)-1H,3H-thiazole [3,4-a] benzimidazole]

The remaining lines, values behind:

Structure (SMILES)	EC50 [µM]
Fc1ccccc1C1SCc2nc3ccccc3n21 (racemic) [IV, (±) 1-(2-fluorophenyl)-1H,3H-thiazole [3,4-a] benzimidazole]	7.63
Oc1cccc(C2SCc3nc4ccccc4n32)c1 (stereo not shown) [XVII]	114
Fc1cccc(C2SCc3nc4ccccc4n32)c1 (racemic) [V, (±) 1-(3-fluorophenyl)-1H,3H-thiazole [3,4-a] benzimidazole]	5.74

Same assay, conditions: IC50/EC50 ratio

Structure (SMILES)	TI50 (therapeutic index)
Fc1ccccc1C1SCc2nc3ccccc3n21 (racemic) [IV, (±) 1-(2-fluorophenyl)-1H,3H-thiazole [3,4-a] benzimidazole]	> 16.5
N#Cc1cccc(C2SCc3nc4ccccc4n32)c1 (stereo not shown) [XXXIII, 1-(3-cyano-phenyl)-1H,3H-thiazole [3,4-a] benzimidazole]	13.1
Fc1cccc(F)c1C1SCc2nc3ccccc3n21 (racemic) [XXII, (±) 1-(2,6-difluorophenyl)-1H,3H-thiazole [3,4-a] benzimidazole]	80
Fc1cccc(Cl)c1C1SCc2nc3ccccc3n21 (racemic) [XXIX, (±) 1-(2-chloro-6-fluorophenyl)-1H,3H-thiazole [3,4-a] benzimidazole]	32.8
O=[N+]([O-])c1ccc(Cl)c(C2SCc3nc4ccccc4n32)c1 (stereo not shown) [XXX]	> 3.42
Clc1cccc(Cl)c1C1SCc2nc3ccccc3n21 (racemic) [XXVI, (±) 1-(2,6-dichlorophenyl)-1H,3H-thiazole [3,4-a] benzimidazole]	86.8
O=[N+]([O-])c1ccccc1C1SCc2nc3ccccc3n21 (stereo not shown) [XXXVI, 1-(2-nitro-phenyl)-1H,3H-thiazole [3,4-a] benzimidazole]	2.16
Oc1cccc(C2SCc3nc4ccccc4n32)c1 (stereo not shown) [XVII]	1.11
Fc1cccc(C2SCc3nc4ccccc4n32)c1 (racemic) [V, (±) 1-(3-fluorophenyl)-1H,3H-thiazole [3,4-a] benzimidazole]	11.8

Test system: human T4-lymphocyte cell line (CEM)
Assay: growth inhibition of normal uninfected cells (CEM)
Format: cell-based
Details: CCRF-CEM, read-out: IC50 (toxic concentration, 50% growth inhibition of normal uninfected cells)
Procedure: as §1
b) the inhibitory concentration 50% (IC50) which represents the toxic concentration of drug resulting in 50% growth inhibition of normal uninfected cells.
as §2

Structure (SMILES)	IC50 [µM]
Fc1cccc(F)c1C1SCc2nc3ccccc3n21 (racemic) [XXII, (±) 1-(2,6-difluorophenyl)-1H,3H-thiazole [3,4-a] benzimidazole]	80

Same assay, conditions: CCRF-CEM, uninfected CEM cells, read-out: IC50 (toxic concentration, 50% growth inhibition of normal uninfected cells)

Structure (SMILES)	IC50 [µM]
Fc1ccccc1C1SCc2nc3ccccc3n21 (racemic) [IV, (±) 1-(2-fluorophenyl)-1H,3H-thiazole [3,4-a] benzimidazole]	> 126
N#Cc1cccc(C2SCc3nc4ccccc4n32)c1 (stereo not shown) [XXXIII, 1-(3-cyano-phenyl)-1H,3H-thiazole [3,4-a] benzimidazole]	38.3
Fc1cccc(Cl)c1C1SCc2nc3ccccc3n21 (racemic) [XXIX, (±) 1-(2-chloro-6-fluorophenyl)-1H,3H-thiazole [3,4-a] benzimidazole]	19.6
O=[N+]([O-])c1ccc(Cl)c(C2SCc3nc4ccccc4n32)c1 (stereo not shown) [XXX]	> 54.4
Clc1cccc(Cl)c1C1SCc2nc3ccccc3n21 (racemic) [XXVI, (±) 1-(2,6-dichlorophenyl)-1H,3H-thiazole [3,4-a] benzimidazole]	22.3
O=[N+]([O-])c1ccccc1C1SCc2nc3ccccc3n21 (stereo not shown) [XXXVI, 1-(2-nitro-phenyl)-1H,3H-thiazole [3,4-a] benzimidazole]	37.2
Oc1cccc(C2SCc3nc4ccccc4n32)c1 (stereo not shown) [XVII]	127
Fc1cccc(C2SCc3nc4ccccc4n32)c1 (racemic) [V, (±) 1-(3-fluorophenyl)-1H,3H-thiazole [3,4-a] benzimidazole]	67.4
